According to publication PMC10033419, “Blocking NS3–NS4B interaction inhibits dengue virus in non-human primates” (Nature, 2023):

Tested on: DENV-2 RL strain
Test: Survival study, lethal DENV challenge with 4G2 antibody
Assay type: in vivo, AG129 mice
Conditions: 2'CMC

C[C@@]1(O)[C@H](O)[C@@H](CO)O[C@H]1n1ccc(N)nc1=O [2'CMC]
% Survival (d p.i. 0): 100% | % Survival (d p.i. 1): 100% | % Survival (d p.i. 2): 100% | % Survival (d p.i. 3): 100% | % Survival (d p.i. 4): 100% | % Survival (d p.i. 5): 100% | % Survival (d p.i. 6): 100% | % Survival (d p.i. 7): 100% | % Survival (d p.i. 8): 100% | % Survival (d p.i. 9): 100% | % Survival (d p.i. 10): 100% | % Survival (d p.i. 11): 100% | % Survival (d p.i. 12): 100% | % Survival (d p.i. 13): 90% | % Survival (d p.i. 14): 80% | % Survival (d p.i. 15): 80% | % Survival (d p.i. 16): 80% | % Survival (d p.i. 17): 80% | % Survival (d p.i. 18): 60% | % Survival (d p.i. 19): 60% | % Survival (d p.i. 20): 60% | % Survival (d p.i. 21): 60% | % Survival (d p.i. 22): 60% | % Survival (d p.i. 23): 60% | % Survival (d p.i. 24): 50% | % Survival (d p.i. 25 = end of study): 50%
